Measurements reported in article PMC9046208, “Foldamers reveal and validate therapeutic targets associated with toxic α-synuclein self-assembly” (Nature Communications, 2022).

Legend:
SH-SY5Y cells = assay: MTT cytotoxicity assay, SH-SY5Y cells; type: cell-based; settings: 24 h, αS alone 48 ± 3%
Method: An MTT assay was conducted to assess the effect of SK-129 on the cytotoxicity mediated by αS aggregation in SH-SY5Y cells. The cells were cultured in phenol red-free Dulbeco’s Modified Eagle Medium (DMEM) with 10% Fetal Bovine Serum (FBS) and 1% penicillin-streptomycin (Pen/strep) at 37 °C and 5% CO2(g). The cells were plated in a clear, flat bottom 96-well cell culture plate (Costar, Kennebunk, ME) using a density of 10,000 cells per well with more than 90% cell viability. After incubating for 24 h, the media was aspirated, and 100 µL of fresh OptiMEM (Fisher Scientific, Pittsburgh, PA) was added, […] of various ligands at various stoichiometric ratios. The samples were then incubated for an additional 24 h at 37 °C and 5% CO2(g), followed by the addition of MTT dye (10 µL per well, prepared in 1x PBS buffer, 5 mg/mL). The plates were covered in aluminum foil and incubated again for 3 h. The solution in each well was carefully removed without disturbing the formazan crystals and replaced with 100 µL of DMSO to dissolve the formazan crystals. Subsequently, the plate was shaken in a 96-well plate reader for 5 min before measuring the absorbance at 570 nm. The cell viability was reported on a scale of 100%, using the control wells with regular media as 100% viability and the wells with 10% DMSO (v/v) as 0% viability.

αS aggregation = target: T1, αS aggregation (Homo sapiens, UniProt P37840); assay: ThT aggregation kinetic assay, de novo, WT αS; type: biochemical; settings: 100 μM analog, 100 μM αS
T1 construct: made in house; host or cells: Escherichia coli BL21(DE3), periplasm
Method: The aggregation kinetics of αS was monitored using ThT fluorescence assay (λex = 450 nm and λem = 485 nm). To study the aggregation kinetics of αS, the ThT dye at a final concentration of 50 μM was added to 100 μM αS solution in the aggregation buffer (1 x PBS buffer) with and without various concentrations of SK-129 in a Costar black 96–well plate (Corning Inc., Kennebunk, ME). The small molecules were dissolved in dimethyl sulfoxide (DMSO; final DMSO concentration = 0.5%, v/v). The final volume in each well was 140 μL. The plate was incubated at 37 °C with 16 min shaking (434 rpm) and 44 min without shaking in an Infinite M200PRO plate reader (Tecan, Männedorf, Switzerland) and fluorescence was recorded after every hour. We used two methods to quantify the effect of molecules on the aggregation of αS; either we have reported the t50 (time required to reach 50% fluorescence of ThT), which was extracted by fitting the ThT curve as a sigmoidal fit or the absolute ThT fluorescence intensity was reported. […] In the second method, we determined the final ThT fluorescence intensity for the aggregation of αS/Aβ42(with or without ligands) as an average of three separate experiments. […]
The aggregation kinetics of WT αS and αS variants were monitored and was carried out with a slightly modified protocol. […] The aggregation of proteins was monitored at the indicated times (See the main manuscript). […]

[1] = tested on: HEK cells expressing αS-A53T-YFP; assay: Intracellular seed catalyzed aggregation in HEK cells, inclusion count; type: cell-based; settings: 10 µM SK-129 added 8 h after αS seeds (0.125 µM)
Method: The HEK cells (200,000 cells/mL) were plated in an µ-slide eight-well plate (300 µL/well) and incubated at 37 °C and 5% CO2 (g), and allowed to adhere to the plate for 24 h in media (DMEM, 10% FBS, 1% pen/strep). […] The HEK cells were incubated with αS fibrils for 8 h followed by the addition of 10 µM SK-129 for 300 µL media in each well (0.3 µL of 10 mM stock solution in DMSO, total DMSO = 0.1% v,v). The eight-well plate was incubated for a total of 24 h. The eight-well plate after 24 h was used for both confocal imaging and for the cytotoxicity measurements using MTT assay (2 wells/condition, 300 µL/well). In each experiment, 2 wells were used for each condition, including control (only media and DMSO), fibrils, and fibrils+SK-129.
The HEK cells in the eight-well plate were treated with a Hoechst 33342 dye solution for 1 h by adding 3 µL to each well (from 1 mg/ml solution in 1x PBS buffer). The Hoechst 33342 solution was carefully mixed with media by pipetting up and down for a few times. […] The counting of inclusions was carried out for six different experiments and for each experiment, 100 cells were counted from at least four different locations from the eight-well plate. The cells were counted manually by counting the number of Hoechst 33342 dye-stained nuclei in the cells. The inclusions in the cells were counted manually at different locations in the eight-well plate. […]

antagonist activity against αS aggregation among analogs (αS aggregation): most potent antagonist
Structure (SMILES): COC(=O)c1cc(OCC(=O)O)c2cccc(NC(=O)c3cc(OC(C)C)c4cccc(NC(=O)c5cc(OCC(=O)O)c6cccc(NC(=O)c7cc(OC(C)C)c8cccc([N+](=O)[O-])c8n7)c6n5)c4n3)c2n1 [SK-129]
viability of SH-SY5Y cells (SH-SY5Y cells; 10 μM αS aggregated with SK-129, 1:0.1 (αS:SK-129)): 91 ± 4% | viability of SH-SY5Y cells (SH-SY5Y cells; 10 μM αS aggregated with SK-129, 1:1 (αS:SK-129)): 97 ± 4% | number of inclusions ([1]; total 24 h, without SK-129 ~19): 1–2 inclusions/100 cells | number of inclusions ([1]; up to 4 days): 2–3 inclusions/100 cells
